6 compounds from patent publication US12351571B2, “Substituted quinoxaline compounds as inhibitors of FGFR tyrosine kinases” (ARRAY BIOPHARMA INC., priority 2018, dated 2025) can be followed below.

In general, IC50 refers to the midpoint of a concentration-inhibition curve.

Experiment [1] concerns the target recombinant human FGFR2 cytoplasmic domain (Homo sapiens (Human), UniProt P21802). Nature of the experiment: FGFR Enzyme Activity Assay (LanthaScreen TR-FRET), FGFR2. In kind it is biochemical. The conditions noted are these: 15 μM ATP, 20 minute incubation; read-out: FGFR2 Enz FRET IC50. The protocol:
FGFR2 kinase activity was measured by the Invitrogen LanthaScreen™ Assay technology which directly measures the amount of substrate phosphorylation by TR-FRET using a flourescently-labeled peptide and Europium-labeled antibody. Briefly, 200 pM His-tagged recombinant human FGFR2 cytoplasmic domain (amino acids 403-822) (Life Technologies Cat. No. PR5332A) was incubated with 100 nM Alexa Fluor® 647-Poly-GT Peptide Substrate (Life Technologies Cat. No. PV5836) and 15 μM ATP along with test compound in a buffer consisting of 250 mM HEPES, 25 mM MgCl2, 0.05% TritonX-100, pH 7.5, and 2% DMSO. Compounds were typically prepared in a threefold serial dilution in DMSO and added to the assay to give the appropriate final concentration. After a 20 minute incubation at 22° C., an equal volume of 2 nM LanthaScreen® Eu-PY20 Antibody (Life Technologies Cat. No. PV5691) and 10 mM EDTA were added to quench the kinase reaction and start the detection reaction. After an additional 60 minute incubation at 22° C., the reaction was measured using a PerkinElmer EnVision multimode plate reader via TR-FRET dual wavelength detection, and the percent of control (POC) calculated using a ratiometric emission factor. 100 POC was determined using no test compounds and 0 POC was determined using no enzyme. The POC values were fit to a 4-parameter logistic curve as a function of the concentration of the compound, and the IC50 value is the point where the curve crosses 50 POC.
Background: Time-resolved FRET reads energy transfer from a long-lived donor to a nearby acceptor.

Experiment [2] concerns the target dephosphorylated FGFR2 (Homo sapiens (Human), UniProt P21802). Description: FGFR Enzyme Binding Assay (HTRF tracer displacement), FGFR2. To be noted: 5 nM dephosphorylated FGFR2, 60 minute incubation at 22° C.; read-out: FGFR2 Enz Binding IC50. The protocol:
The potency of compounds inhibiting human isoforms of FGFR kinase was determined using Life Technologies' Homogeneous Time Resolved Fluorescence (HTRF)-based binding assay technology. An incubation was conducted with either 5 nM dephosphorylated FGFR1 (Array Biopharma, p1702; SEQ ID NO: 1, amino acids 458 to 765, dephosphorylated by co-expression with PTP1b (protein tyrosine phosphatase 1B)), 5 nM dephosphorylated FGFR2 (Life Technologies, Cat. No. PV4106 that had been dephosphorylated with Lambda protein phosphatase (New England Biolabs, cat #P0753)) or 5 nM phosphorylated FGFR3 (Array Biopharma, p1836; SEQ ID NO: 5, amino acids 449 to 759), 50 nM Kinase Tracer 236 (Life Technologies Cat. No. PR9078A), 2 nM Biotin-anti-6HIS (Life Technologies Cat. No. PV6090) and 2 nM Europium-Streptavidin (Life Technologies Cat. No. PV6025) along with test compound in a buffer consisting of 50 mM HEPES ((4-(2-hydroxyethyl)-1-piperazineethanesulfonic acid, pH 7.5), 5 mM MgCl2, 0.005% Triton X-100, 1 mM DTT, 1 mM NaVO4 and 2% DMSO in a final volume of 12 μL Compounds were typically prepared as a 3-fold or 4-fold serial dilution in DMSO and added to the assay to give the appropriate final concentration. After a 60 minute incubation at 22° C., the extent of tracer displacement was determined using a PerkinElmer EnVision multimode plate reader via HTRF dual wavelength detection, and the percent of control (POC) was calculated using a ratiometric emission factor. One hundred POC was determined using no test compound, and 0 POC was determined in the presence of 1 μM of an appropriate control inhibitor. A 4-parameter logistic curve was fit to the POC values as a function of the concentration of compound, and the IC50 value was the point where the best-fit curve crossed 50 POC.

The target of experiment [3] is human wild type FGFR3 (Homo sapiens (Human), UniProt P22607). Description: FGFR3 pFGFR Cell Assay. In kind it is cell-based. To be noted: HEK-293 cells, 1 hour compound, 100 ng/ml human FGF-acidic, ELISA. The method, then:
HEK-293 cells transfected with dox-inducible human wild type FGFR3 (SEQ ID NO: 5) were plated in a collagen or poly-D-lysine coated 96 well flat bottom plates at 4×10^5 cells/well in complete DMEM medium containing 10% FBS and 1 μg/ml doxycycline and allowed to attach for 24 h at 37° C., 5% CO2. Cells were treated with compound using 1:3 serial dilutions with a top final concentration of 5 μM. Compound was incubated on cells for 1 hour at 37° C., 5% CO2. Cells were then stimulated with a final concentration of 100 ng/ml human FGF-acidic for 5 minutes at 37° C., 5% CO2. Medium was removed and cells were lysed with lysis buffer containing phosphatase and protease inhibitors. Phospho FGFR3 was measured by ELISA (R&D Systems cat DYC2719). The ELISA captures total FGFR3 and detects total phospho tyrosine. Optical density was measured for each well using a Versamax reader at a wavelength of 450 nm. 100 POC was determined using no test compounds and 0 POC was determined using a control compound. The POC values were fit to a 4-parameter logistic curve as a function of the concentration of the compound, and the IC50 value is the point where the curve crosses 50 POC.
For orientation: An ELISA detects its analyte on a solid surface through an enzyme-linked reagent.

In experiment [4] the target is human wild type FGFR2 (Homo sapiens (Human), UniProt P21802). Description: FGFR2 pFGFR Cell Assay. The format is cell-based. To be noted: HEK-293 cells, 1 hour compound, 30 ng/ml human FGF-acidic, ELISA. The protocol: HEK-293 cells transfected with dox-inducible human wild type FGFR2 (SEQ ID NO: 3) were plated in a collagen or poly-D-lysine coated 96 well flat bottom plates at 4×10^5 cells/well in complete DMEM medium containing 10% FBS and 1 μg/ml doxycycline and allowed to attach for 24 h at 37° C., 5% CO2. Cells were treated with compound using 1:3 serial dilutions with a maximum final concentration of 5 μM. Compound was incubated on cells for 1 hour at 37° C., 5% CO2. Cells were then stimulated with a final concentration of 30 ng/ml human FGF-acidic (R&D Systems Cat number 232-FA/CF) for 5 minutes at 37° C., 5% CO2. Medium was removed and cells were lysed with lysis buffer containing phosphatase and protease inhibitors. Phospho FGFR2 was measured by ELISA (R&D Systems cat. no. DYC684). The ELISA captures total FGFR2 and detects total phospho tyrosine. Optical density was measured for each well using a Versamax reader at a wavelength of 450 nm. 100 POC was determined using no test compounds and 0 POC was determined using a control compound. The POC values were fit to a 4-parameter logistic curve as a function of the concentration of the compound, and the IC50 value is the point where the curve crosses 50 POC.
Sequence of human wild type FGFR2 (P21802 22-821): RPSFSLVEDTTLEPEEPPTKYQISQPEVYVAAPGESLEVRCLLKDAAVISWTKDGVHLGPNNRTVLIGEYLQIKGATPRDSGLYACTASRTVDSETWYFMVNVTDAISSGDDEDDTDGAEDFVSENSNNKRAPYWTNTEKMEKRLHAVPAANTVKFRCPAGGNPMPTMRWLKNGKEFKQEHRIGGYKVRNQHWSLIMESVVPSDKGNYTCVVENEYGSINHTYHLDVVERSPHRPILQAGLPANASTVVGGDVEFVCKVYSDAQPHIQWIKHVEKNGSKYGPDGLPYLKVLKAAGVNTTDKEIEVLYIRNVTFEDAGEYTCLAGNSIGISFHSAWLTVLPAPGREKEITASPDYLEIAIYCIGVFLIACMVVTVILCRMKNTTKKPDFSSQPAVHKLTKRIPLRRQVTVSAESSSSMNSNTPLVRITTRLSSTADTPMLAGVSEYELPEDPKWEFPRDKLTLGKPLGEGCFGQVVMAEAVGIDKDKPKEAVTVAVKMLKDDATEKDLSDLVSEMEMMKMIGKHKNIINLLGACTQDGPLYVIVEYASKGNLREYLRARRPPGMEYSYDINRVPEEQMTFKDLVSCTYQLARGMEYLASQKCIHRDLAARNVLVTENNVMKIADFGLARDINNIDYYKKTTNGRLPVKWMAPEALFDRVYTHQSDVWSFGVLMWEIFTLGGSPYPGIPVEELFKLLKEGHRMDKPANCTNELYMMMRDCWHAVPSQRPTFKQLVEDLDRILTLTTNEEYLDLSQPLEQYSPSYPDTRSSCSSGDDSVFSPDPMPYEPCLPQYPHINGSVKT

Sequence of dephosphorylated FGFR2 (P21802 22-821): as above
Sequence of human wild type FGFR3 (P22607 23-806): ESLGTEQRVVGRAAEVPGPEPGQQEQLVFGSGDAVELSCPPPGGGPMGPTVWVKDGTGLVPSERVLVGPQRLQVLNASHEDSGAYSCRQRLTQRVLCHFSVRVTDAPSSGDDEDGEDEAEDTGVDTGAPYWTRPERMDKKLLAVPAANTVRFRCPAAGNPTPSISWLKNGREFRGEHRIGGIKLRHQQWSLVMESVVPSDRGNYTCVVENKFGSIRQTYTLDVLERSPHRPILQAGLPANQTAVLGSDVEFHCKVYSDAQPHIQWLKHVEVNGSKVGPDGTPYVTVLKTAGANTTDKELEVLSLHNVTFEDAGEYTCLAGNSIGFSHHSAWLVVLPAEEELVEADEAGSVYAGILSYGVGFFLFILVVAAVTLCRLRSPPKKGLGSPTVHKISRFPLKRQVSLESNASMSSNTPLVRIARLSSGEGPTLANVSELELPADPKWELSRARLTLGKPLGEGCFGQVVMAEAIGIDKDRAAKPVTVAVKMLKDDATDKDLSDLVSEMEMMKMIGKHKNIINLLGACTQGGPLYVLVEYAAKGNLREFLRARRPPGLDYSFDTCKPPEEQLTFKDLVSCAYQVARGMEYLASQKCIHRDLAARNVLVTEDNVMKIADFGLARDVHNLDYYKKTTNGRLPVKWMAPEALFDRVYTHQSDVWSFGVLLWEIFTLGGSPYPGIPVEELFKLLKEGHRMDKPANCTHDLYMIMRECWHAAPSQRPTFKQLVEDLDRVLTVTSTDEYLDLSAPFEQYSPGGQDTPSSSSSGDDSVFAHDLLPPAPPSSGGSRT
Sequence of recombinant human FGFR2 cytoplasmic domain (P21802 402-821): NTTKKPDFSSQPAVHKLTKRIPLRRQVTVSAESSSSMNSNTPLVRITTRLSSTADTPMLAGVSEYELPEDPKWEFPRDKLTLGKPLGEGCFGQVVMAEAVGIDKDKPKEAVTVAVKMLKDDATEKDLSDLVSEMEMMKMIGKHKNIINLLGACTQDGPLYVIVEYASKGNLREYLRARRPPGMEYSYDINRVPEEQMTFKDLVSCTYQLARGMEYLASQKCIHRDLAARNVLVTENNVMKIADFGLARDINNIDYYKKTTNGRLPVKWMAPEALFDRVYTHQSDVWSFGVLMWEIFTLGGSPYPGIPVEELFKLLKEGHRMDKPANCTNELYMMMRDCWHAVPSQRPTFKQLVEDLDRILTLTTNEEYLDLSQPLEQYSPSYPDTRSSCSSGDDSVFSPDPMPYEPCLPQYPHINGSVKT

As for `C=CC(=O)N1CC(F)(C(=O)N2CCC(n3cc(-c4cnc5ccc(Nc6cc(OC)cc(OC)c6)cc5n4)cn3)CC2)C1` [Example 4, 1-(3-(4-(4-(7-((3,5-dimethoxyphenyl)amino)-quinoxalin-2-yl)-1H-pyrazol-1-yl)piperidine-1-carbonyl)-3-fluoro-azetidin-1-yl)prop-2-en-1-one], the IC50 amounted to 40 nM in experiment [1], 4 nM in experiment [2] and 17 nM in experiment [3].
Consider `C=CC(=O)N1CC(C(=O)N2CCC(n3cc(-c4cnc5ccc(Nc6cc(OC)cc(OC)c6)cc5n4)cn3)CC2)C1` [Example 1, 1-(3-(4-(4-(7-((3,5-dimethoxyphenyl)amino)quinoxalin-2-yl)-1H-pyrazol-1-yl)piperidine-1-carbonyl)azetidin-1-yl)prop-2-en-1-one], for which the IC50 in experiment [1] came to 11 nM; in experiment [2], 3 nM; in experiment [4], 140 nM; in experiment [3] it was 35 nM.
For `C=CC(=O)N1CCC(C(=O)N2CCC(n3cc(-c4cnc5ccc(Nc6cc(OC)cc(OC)c6)cc5n4)cn3)CC2)CC1` [Example 3, 1-(4-(4-(4-(7-((3,5-dimethoxyphenyl)amino)-quinoxalin-2-yl)-1H-pyrazol-1-yl)piperidine-1-carbonyl)piperidin-1-yl)prop-2-en-1-one] the same measures were 12 nM, 5 nM, 69 nM and 89 nM.
For `C=CC(=O)N1CC[C@@H](C(=O)N2CCC(n3cc(-c4cnc5ccc(Nc6cc(OC)cc(OC)c6)cc5n4)cn3)CC2)C1` [Example 2, (R)-1-(3-(4-(4-(7-((3,5-dimethoxyphenyl)amino)-quinoxalin-2-yl)-1H-pyrazol-1-yl)piperidine-1-carbonyl)pyrrolidin-1-yl)-prop-2-en-1-one] the same measures were 11 nM, 6 nM, 117 nM and 121 nM.
Turning to `COc1cc(Nc2ccc3ncc(-c4cn(C5CCN(C(=O)C6(F)CN(C(=O)/C=C/CN(C)C)C6)CC5)nc4C)nc3c2)cc(OC)c1` [Example 22, (E)-1-(3-(4-(4-(7-((3,5-dimethoxyphenyl)amino)-quinoxalin-2-yl)-3-methyl-1H-pyrazol-1-yl)-piperidine-1-carbonyl)-3-fluoroazetidin-1-yl)-4-(dimethylamino)but-2-en-1-one], the half-maximal inhibitory concentration (IC50) in experiment [1] is 84 nM; in experiment [2], 19 nM; in experiment [4] it was 301 nM.
For `C=CC(=O)N1CC(CN2CCC(n3cc(-c4cnc5ccc(Nc6cc(OC)cc(OC)c6)cc5n4)cn3)CC2)(OC)C1` [Example 29, 1-(3-((4-(4-(7-((3,5-dimethoxyphenyl)amino)quinoxalin-2-yl)-1H-pyrazol-1-yl)piperidin-1-yl)methyl)-3-methoxyazetidin-1-yl)prop-2-en-1-one] the same measures were 333 nM, 5 nM and 56 nM.
